{"source": "patent US20170298083A1", "about": "“NEW IMMUNOSTIMULATORY COMPOUNDS” (Bernhard-Nocht-Institut für Tropenmedizin, priority 2014, published 2017)", "key": {"[1]": {"experiment": "liver toxicity: serum ALT after intraperitoneal injection", "type": "in vivo", "details": "C57BL/6 mice, four-time intraperitoneal injection; EhLPPG 1, 10, 25 and 50 μg/ml; αGalCer 0.1, 1 and 10 μg/ml"}, "Leishmania major": {"test_system": "Leishmania major", "experiment": "in vitro Leishmania assay: infected bone marrow derived macrophages", "details": "for percentage of L. major infected macrophages / parasite load per macrophage: BMM, 48 h"}, "human NKT cells": {"test_system": "human NKT cells", "experiment": "human iNKT cell assay: intracellular cytokine production in whole PBMCs by FACS", "type": "cell-based", "details": "human PBMC, 15 h, 1 μg/ml αGalCer or 10 μg/ml purified EhLPPG, FIG. 1"}}}
{"smiles": "CCCCCCCCCCCCCCCCCCCCCCCCCC(=O)N[C@@H](CO[C@H]1O[C@H](CO)[C@H](O)[C@H](O)[C@H]1O)[C@H](O)[C@H](O)CCCCCCCCCCCCCC", "note": "[αGalCer, α-galactosylceramide]", "values": [{"measurement": "liver ALT enzyme level in serum", "setting": "[1]", "result": "significant increase in the ALT levels"}, {"measurement": "percentage of L. major infected macrophages", "setting": "Leishmania major; spleen-derived lymphocytes co-incubated, FIG. 5B", "result": "significantly reduced"}, {"measurement": "parasite load per macrophage", "setting": "Leishmania major; with addition of spleen cells, FIG. 5D", "result": "a significant reduction"}, {"measurement": "percentage of L. major infected macrophages", "setting": "Leishmania major; without spleen cells, FIG. 5A", "result": "significantly reduced"}, {"measurement": "parasite load per macrophage", "setting": "Leishmania major; without spleen cells, FIG. 5C", "result": "significantly reduced the amount of parasites within the macrophages"}, {"measurement": "expression of iNOS", "setting": "Leishmania major; preliminary results, data not shown", "result": "increase in the expression of iNOS"}, {"measurement": "production of tumor necrosis factor (TNF) α and IL-17 in NKT cells", "setting": "human NKT cells", "result": "led to the production of tumor necrosis factor (TNF) α and IL-17"}, {"measurement": "CD4+NKT cells positive for IFN-γ and IL-4", "setting": "human NKT cells; αCD28 co-stimulant", "result": "considerable amounts of CD4+NKT cells positive for IFN-γ and IL-4"}]}
